Laboratory results reported in ChEMBL document CHEMBL1201862, “PubChem BioAssay data set” (2004).
The source made the active and inactive calls.

How the values were obtained:
[1] = cytotoxicity toward NIH3T3 fibroblasts, dose response, counter-screen, cell-based, ATP luminescence, mouse fibroblasts (AID 2010); type: functional;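 note: cells exposed to compound for about 90 hours before reading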
[2] = system: Streptococcus sp. 'group A'; assay: growth inhibition of control SK(-) GAS strain, dose response, counter-screen for streptokinase expression inhibitor project, luminescence, kanamycin, BacTiterGlo, confirmation (AID 1900); type: functional, organism-based
[3] = inhibitors of intracellular T. cruzi replication, confirmation, NIH3T3 host cells, beta-gal luminescence (AID 2044); type: functional, cell-based;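 note: intracellular parasites grown in NIH/3T3 mouse fibroblasts as host cells; luminescent beta-galactosidase reporter signal from transgenic T. cruzi replicating inside host cells; inhibitors lower the luminescence signal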
Streptococcus = assay: Group A Streptococcus viability loss, dose response, counter-screen for streptokinase expression inhibitor project, luminescence, BacTiterGlo (AID 1915); type: functional, organism-based;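 note: potency for reduction of bacterial viability or growth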
Streptokinase A = molecular target: T1, Streptokinase A (Streptococcus pyogenes serotype M1, UniProt P10520); assay: S. pyogenes streptokinase expression inhibitors, potency, dose response, plasminogen activation absorbance, OD405 (AID 1914); type: functional, Streptococcus pyogenes M1 GAS;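 note: secreted streptokinase activity via plasminogen activation per viability signal from cell pellet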
T1 sequence (P10520 whole entry): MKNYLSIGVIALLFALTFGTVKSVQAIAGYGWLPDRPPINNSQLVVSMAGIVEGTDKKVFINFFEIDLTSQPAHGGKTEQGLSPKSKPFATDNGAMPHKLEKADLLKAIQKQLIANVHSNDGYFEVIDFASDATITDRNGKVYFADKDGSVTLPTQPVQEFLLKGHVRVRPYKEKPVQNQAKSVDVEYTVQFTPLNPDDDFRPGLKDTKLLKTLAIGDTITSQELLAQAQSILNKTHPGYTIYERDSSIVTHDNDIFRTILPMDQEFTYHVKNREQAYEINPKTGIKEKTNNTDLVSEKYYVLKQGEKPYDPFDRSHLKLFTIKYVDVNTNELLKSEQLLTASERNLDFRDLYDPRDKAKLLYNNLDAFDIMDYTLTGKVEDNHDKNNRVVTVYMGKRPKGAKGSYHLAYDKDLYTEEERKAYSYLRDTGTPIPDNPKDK

[4] = A Cell Based Secondary Assay To Explore Cytotoxicity of Compounds that Sensitize Mycobacterium Tuberculosis to Beta-Lactam Antibiotics.; type: functional
HEK293 [5] = assay: cells; type: functional, cell-based; details: Homo sapiens
HEK293 [6] = assay: cells; type: functional, cell-based; details: Homo sapiens; remark: listed apart in the source
HEK293 [7] = assay: cells; type: functional, cell-based; details: Homo sapiens; remark: listed apart in the source
HEK293 [8] = assay: NOD2 signaling inhibitors in MDP-stimulated cells, cell-based, uHTS, luminescence (AID 2001); type: functional; details: Homo sapiens
HEK293 [9] = assay: NOD1 signaling inhibitors, primary screen, cell-based, luminescence, uHTS (AID 1578); type: functional; details: Homo sapiens
[10] = molecular target: Nucleotide-binding oligomerization domain-containing protein 2 (Homo sapiens, UniProt Q9HC29); assay: NOD2 signaling inhibitors, cell-based, luminescence, uHTS, HEK293 (AID 1566); type: functional
Troponin, cardiac muscle = Troponin, cardiac muscle (Homo sapiens, UniProt P19429+P45379+P63316); assay: Fluorescence-based biochemical high throughput dose response assay for activators of the calcium sensitivity of cardiac Regulated Thin Filaments (RTF). [Related pubchem assays (depositor defined):AID493008, AID493018, AID504382, AID504383]; type: protein-complex assay
[11] = A cytotoxicity screen of small molecule inhibitors of the PhoP region in Salmonella typhi identified in the primary screen. [Related pubchem assays: 1850, 1864, 1985 ]; type: functional
[12] = molecular target: Eukaryotic translation initiation factor 4E (Mus musculus, UniProt P63073); assay: eIF4E–eIF4G protein interaction inhibitors, dose response, biochemical, TR-FRET (AID 855); type: functional;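 note: potency for disrupting eIF4E binding to eIF4GI seen as loss of FRET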
[13] = LGR2 antagonists, dose response, cell-based, HEK293, CRE-luciferase reporter, cherry pick, set 2 (AID 743343); type: functional;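 note: transfected cells were stimulated with diluted bursicon conditioned medium after compound addition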
cells = type: functional
[14] = MC4R antagonists, dose response, counter-screen for LGR2 antagonist project, cell-based, plate reader, cherry pick (AID 743444); type: functional;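 note: transfected HEK 293 cells stimulated with alpha-MSH peptide; potency of inhibitors of the alpha-MSH evoked signal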
[15] = M. tuberculosis H37Rv growth inhibitors, H37Rv strain (AID 1626); type: functional
[16] = molecular target: T2, Replicative DNA helicase DnaB (Mycobacterium tuberculosis, UniProt P9WMR3); assay: DnaB intein splicing inhibitors, dose response, biochemical, cell-free fluorescence (AID 449749); type: functional
T2 sequence (P9WMR3 whole entry): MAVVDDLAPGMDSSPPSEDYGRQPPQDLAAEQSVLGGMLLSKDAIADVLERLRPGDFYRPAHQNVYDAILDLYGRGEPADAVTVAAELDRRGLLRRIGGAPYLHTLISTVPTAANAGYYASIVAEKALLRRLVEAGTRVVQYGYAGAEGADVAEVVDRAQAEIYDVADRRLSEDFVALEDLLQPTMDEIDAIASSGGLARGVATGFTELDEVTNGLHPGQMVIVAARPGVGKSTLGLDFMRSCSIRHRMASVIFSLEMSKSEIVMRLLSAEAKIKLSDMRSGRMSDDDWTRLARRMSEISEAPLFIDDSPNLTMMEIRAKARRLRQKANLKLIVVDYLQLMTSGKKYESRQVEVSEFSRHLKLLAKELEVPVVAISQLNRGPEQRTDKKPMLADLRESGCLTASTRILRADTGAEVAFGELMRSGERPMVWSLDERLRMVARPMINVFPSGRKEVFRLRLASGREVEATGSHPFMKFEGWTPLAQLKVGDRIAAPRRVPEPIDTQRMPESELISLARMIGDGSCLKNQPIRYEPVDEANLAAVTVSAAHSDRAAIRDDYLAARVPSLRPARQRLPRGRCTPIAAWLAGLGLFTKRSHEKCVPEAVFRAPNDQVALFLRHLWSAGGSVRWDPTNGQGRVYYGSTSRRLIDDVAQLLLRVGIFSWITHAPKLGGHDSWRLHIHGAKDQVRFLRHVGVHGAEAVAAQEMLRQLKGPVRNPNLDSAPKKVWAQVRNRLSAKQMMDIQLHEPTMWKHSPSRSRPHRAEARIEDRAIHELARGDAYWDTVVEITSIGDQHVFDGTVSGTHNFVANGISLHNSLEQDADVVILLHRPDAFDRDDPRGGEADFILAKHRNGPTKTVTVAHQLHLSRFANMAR

Protein RecA = molecular target: T3, Protein RecA (Mycobacterium tuberculosis, UniProt P9WHJ3); assay: Fluorescence Cell-Free Homogeneous Dose Retest to Identify Inhibitors of RecA-Intein Splicing Activity. [Related pubchem assays (depositor defined):AID2097, AID2223, AID489010, AID492950]; type: functional
T3 sequence (P9WHJ3 whole entry): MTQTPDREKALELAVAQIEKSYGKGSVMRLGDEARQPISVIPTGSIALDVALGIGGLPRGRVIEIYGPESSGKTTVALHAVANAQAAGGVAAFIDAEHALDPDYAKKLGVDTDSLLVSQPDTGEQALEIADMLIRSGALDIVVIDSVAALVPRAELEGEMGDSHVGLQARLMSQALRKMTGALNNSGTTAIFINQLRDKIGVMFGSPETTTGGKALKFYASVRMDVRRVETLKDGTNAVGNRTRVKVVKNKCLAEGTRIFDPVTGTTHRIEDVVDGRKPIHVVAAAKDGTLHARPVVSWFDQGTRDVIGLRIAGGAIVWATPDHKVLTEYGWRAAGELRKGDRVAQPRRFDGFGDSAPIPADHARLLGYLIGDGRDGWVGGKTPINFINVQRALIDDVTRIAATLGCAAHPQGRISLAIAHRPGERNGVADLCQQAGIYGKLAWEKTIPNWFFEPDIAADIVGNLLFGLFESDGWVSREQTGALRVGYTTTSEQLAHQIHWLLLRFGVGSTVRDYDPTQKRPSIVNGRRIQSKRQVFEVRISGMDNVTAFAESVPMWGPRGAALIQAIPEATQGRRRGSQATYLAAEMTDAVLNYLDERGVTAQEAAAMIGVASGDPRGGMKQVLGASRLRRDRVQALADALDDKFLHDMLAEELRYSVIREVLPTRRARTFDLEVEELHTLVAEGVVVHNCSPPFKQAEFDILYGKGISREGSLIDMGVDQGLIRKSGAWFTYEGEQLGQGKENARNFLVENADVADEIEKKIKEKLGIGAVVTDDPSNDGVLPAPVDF

CCOC(=O)c1sc(NC(=O)Nc2ccc(Cl)cc2)cc1C
EC50 [1]: > 60 µM (not active) | EC50 [2]: 6.12 µM (active) | EC50 [3]: 1.5 µM (active) | EC50 (Streptococcus): 15.6 µM (active) | EC50 (Streptokinase A): 26.1 µM (inconclusive) | CC50 [4]: 24.9 µM (active)

O=C(c1n[nH]cc1-c1ccc(Cl)cc1)C1CO1 (stereo not given)
IC50 (HEK293 [5]): > 20 µM (inactive) | IC50 (HEK293 [6]): > 20 µM (inactive) | IC50 (HEK293 [7]): 4.08 µM (active) | IC50 (HEK293 [8]): 5.72 µM (inactive) | EC50 (HEK293 [9]): 19.3 µM (active)

Cc1ccc(C(C)C)c(OCc2ccc(-c3nnco3)cc2)c1
IC50 (HEK293 [5]): > 20 µM (inactive) | IC50 (HEK293 [6]): > 20 µM (inactive) | IC50 (HEK293 [7]): 15.2 µM (active) | EC50 [10]: 14.6 µM (active) | IC50 (HEK293 [8]): > 20 µM (inactive) | EC50 (HEK293 [9]): 13.2 µM (active)

COC(=O)c1ccc(S(=O)(=O)N2CCC(O)CC2)n1C
EC50 (Troponin, cardiac muscle): > 71.4 µM (inactive)

CCCCn1c(SCC(=O)N2CCN(c3ccccc3)CC2)nc2ccsc2c1=O
IC50 (HEK293 [5]): > 20 µM (inactive) | IC50 (HEK293 [6]): > 20 µM (inactive) | IC50 (HEK293 [7]): 11.5 µM (active) | EC50 [10]: 4.06 µM (active) | IC50 (HEK293 [8]): 8.34 µM (active) | EC50 (HEK293 [9]): 9.68 µM (active)

O=C(CSc1nc(-c2ccc(F)cc2)c[nH]1)NCc1ccco1
EC50 [11]: > 50 µM (active)

O=C1c2ccccc2C(O)N1Cc1ccccc1Cl (stereo not given)
IC50 [12]: > 64 µM (inactive)

O=C(COc1ccc2ccccc2c1)Nc1nccs1
AC50 [13]: 7.4 µM (active) | EC50 [11]: > 50 µM (active) | IC50 (cells): 22.3 µM (active) | AC50 [14]: 18 µM (active) | IC50 [15]: > 100 µM (active)

O=C(Nc1cccnc1)c1c(O)c2c(n(Cc3ccccc3)c1=O)CCCC2
IC50 [12]: > 64 µM (inactive)

O=C(c1[nH]ncc1-c1ccc(Cl)cc1)C1CO1 (stereo not given)
EC50 [10]: > 20 µM (inactive) | AC50 [16]: 31.7 µM (active) | EC50 (Protein RecA): 20.9 µM (active)
